These results are taken from US9556205B2, “Fungicide N-[(trisubstitutedsilyl)methyl]-carboxamide derivatives” (BAYER INTELLECTUAL PROPERTY GMBH, priority 2010, dated 2017).

The subject of one data set is Alternaria solani. Put plainly: In vivo preventive test on Alternaria solani (tomato). As to conditions: 500 ppm of active ingredient, evaluated 7 days after inoculation. On the procedure:
Solvent: 49 parts by weight of N,N-dimethylformamide Emulsifier: 1 part by weight of Alkylarylpolyglycolether To produce a suitable preparation of active compound, 1 part by weight of active compound is mixed with the stated amounts of solvent and emulsifier, and the concentrate is diluted with water to the desired concentration. To test for preventive activity, young plants are sprayed with the preparation of active compound at the stated rate of application. One day after this treatment, the plants are inoculated with an aqueous spore suspension of Alternaria solani. […] Then the plants are placed in an incubation cabinet at approximately 20° C. and a relative atmospheric humidity of 96%.

The subject of the next data set is Aspergillus parasiticus. Type of data set: cell-based. To be noted: 7 days at 20° C., OD620nm.
A short description of data set [1]: log P by HPLC on reversed-phase column (C18), EEC Directive 79/831 Annex V.A8. Type of data set: physicochemical. As to conditions: 40° C., 0.1% aqueous formic acid and acetonitrile, linear gradient 10% to 90% acetonitrile. On the procedure:
In table 1, the log P values were determined in accordance with EEC Directive 79/831 Annex V.A8 by HPLC (High Performance Liquid Chromatography) on a reversed-phase column (C18), using the method described below:
Temperature: 40° C.; Mobile phases: 0.1% aqueous formic acid and acetonitrile; linear gradient from 10% acetonitrile to 90% acetonitrile.
Calibration was carried out using unbranched alkan-2-ones (comprising 3 to 16 carbon atoms) with known log P values (determination of the log P values by the retention times using linear interpolation between two successive alkanones). lambda-max-values were determined using UV-spectra from 200 nm to 400 nm and the peak values of the chromatographic signals.

The subject of data set [2] is Aflatoxins production by Aspergillus parasiticus. It counts as cell-based.
A further data set relates to Pyrenophora teres. Briefly: In vivo preventive test on Pyrenophora teres (barley), Example F. To be noted: 500 ppm of active ingredient, evaluated 7-9 days after inoculation. On the procedure: Solvent: 49 parts by weight of N,N-dimethylformamide Emulsifier: 1 part by weight of alkylaryl polyglycol ether To produce a suitable preparation of active compound, 1 part by weight of active compound is mixed with the stated amounts of solvent and emulsifier, and the concentrate is diluted with water to the desired concentration. To test for preventive activity, young plants are sprayed with the preparation of active compound at the stated rate of application. One day after this treatment, the plants are inoculated with an aqueous spore suspension of Pyrenophora teres. […] Then the plants are placed in a greenhouse at a temperature of approximately 20° C. and a relative atmospheric humidity of approximately 80%.

As to `Cn1nc(C(F)F)c(C(=O)NC[Si](C)(C)c2ccccc2)c1F` [Example 1], the Efficacy in the data set with Alternaria solani and with Pyrenophora teres was 100% throughout. Also, the “% Inhibition of fungal growth at 50 μM” value with Aspergillus parasiticus stood at 93%. This compound yielded a logP in data set [1] of 3.13. Also, the “% Inhibition of Aflatoxin at 50 μM” value in data set [2] is 100%.
As for `Cn1nc(C(F)F)c(C(=O)NC[Si](C)(C)c2ccccc2)c1Cl` [Example 2], the Efficacy in the data set with Alternaria solani is on record as 95%; in the data set on Pyrenophora teres, 100%. Further, the “% Inhibition of fungal growth at 50 μM” value in the data set on Aspergillus parasiticus is recorded as 71%. Moreover, the logP in data set [1] came to 3.31. In addition, the “% Inhibition of Aflatoxin at 50 μM” value in data set [2] is listed as 87%.
Take `Cc1cc(C(=O)NC[Si](C)(C)c2ccccc2)c(C)o1` [Example 3]: the logP in data set [1] turned out to be 3.48.
Compound `Cc1nn(C)c(F)c1C(=O)N(C[Si](C)(C)c1ccccc1)C1CC1` [Example 8, N-cyclopropyl-N-{[dimethyl(phenyl)silyl]methyl}-5-fluoro-1,3-dimethyl-1H-pyrazole-4-carboxamide] gave a chromatographic logP in data set [1] of 3.19.
`Cc1cc(C(=O)NC[Si](C)(C)c2ccccc2Cl)c(C)o1` [Example 13] registered a logP in data set [1] of 3.85.
On the same count and under the same terms, under `Cn1nc(C(F)F)c(C(=O)NC[Si](C)(C)c2ccccc2Cl)c1Cl` [Example 14] stands 3.69.
In the data set on Alternaria solani, `Cn1nc(C(F)F)c(C(=S)NC[Si](C)(C)c2ccccc2Cl)c1F` [Example 16] came in with an Efficacy of 70%. The compound further came in with a logP in data set [1] of 4.11.
As for `Cc1cc(C(=O)N(C[Si](C)(C)c2ccccc2Cl)C2CC2)c(C)o1` [Example 22], the figures for the Efficacy in the data set with Alternaria solani and in the data set with Pyrenophora teres were 95% and 80%, respectively. In data set [1], this compound came in with a logP of 4.74.
The compound `Cc1cc(C(=O)NC[Si](C)(C)c2cccc(Cl)c2)c(C)o1` [Example 23] gave a logP in data set [1] of 3.92.
Still for that read-out and setting: the value for `Cn1cc(C(=O)NC[Si](C)(C)c2cccc(Cl)c2)c(C(F)F)c1` [Example 24] was 3.58.
`Cn1nc(C(F)F)c(C(=O)NC[Si](C)(C)c2cccc(Cl)c2)c1Cl` [Example 25]: the Efficacy in the data set on Alternaria solani and in the data set on Pyrenophora teres was 100% in each case. Further, the “% Inhibition of fungal growth at 50 μM” value in the data set with Aspergillus parasiticus amounted to 84%. In data set [1], the logP came to 3.71. Moreover, the “% Inhibition of Aflatoxin at 50 μM” value in data set [2] was determined as 99%.
Turning to `Cn1nc(C(F)F)c(C(=O)NC[Si](C)(C)c2cccc(Cl)c2)c1F` [Example 26], the Efficacy with Alternaria solani and with Pyrenophora teres was 100% each time. Besides, the “% Inhibition of fungal growth at 50 μM” value in the data set on Aspergillus parasiticus was found to be 100%. The log partition coefficient (logP) in data set [1] is listed as 3.55. The “% Inhibition of Aflatoxin at 50 μM” value in data set [2] stood at 100%.
As for `Cc1cc(C(=O)N(C[Si](C)(C)c2cccc(Cl)c2)C2CC2)c(C)o1` [Example 29], the values for the Efficacy in the data set on Alternaria solani and with Pyrenophora teres were 94% and 95%, respectively. Further, the logP in data set [1] is given as 4.78.
The compound `Cc1cc(C(=O)NC[Si](C)(C)c2ccc(Cl)cc2Cl)c(C)o1` [Example 33] yielded a logP in data set [1] of 4.46.
As to `Cn1cc(C(=O)NC[Si](C)(C)c2ccc(Cl)cc2Cl)c(C(F)F)c1` [Example 34], the logP in data set [1] is reported as 4.06.
Regarding `Cn1nc(C(F)F)c(C(=O)NC[Si](C)(C)c2ccc(Cl)cc2Cl)c1Cl` [Example 35], the Efficacy in the data set on Alternaria solani is 90%. Also, the logP in data set [1] is listed as 4.25.
Regarding `Cn1nc(C(F)F)c(C(=O)NC[Si](C)(C)c2ccc(Cl)cc2Cl)c1F` [Example 36], the Efficacy in the data set on Alternaria solani and with Pyrenophora teres was 100% throughout. Also, the “% Inhibition of fungal growth at 50 μM” value in the data set on Aspergillus parasiticus is 84%. In addition, in data set [1], the logP is given as 4.06. Also, the “% Inhibition of Aflatoxin at 50 μM” value in data set [2] was found to be 100%.
`Cn1nc(C(F)F)c(C(=S)NC[Si](C)(C)c2ccc(Cl)cc2Cl)c1F` [Example 37] gave a logP in data set [1] of 4.74.
For the compound `Cc1nc(C(F)F)c(C(=O)N(C[Si](C)(C)c2ccc(Cl)cc2Cl)C2CC2)s1` [Example 43], the Efficacy in the data set with Alternaria solani and in the data set on Pyrenophora teres was 100% throughout. The logP in data set [1] was 5.00.
Consider `Cc1cc(C(=O)NC[Si](C)(C)c2cc(Cl)cc(Cl)c2)c(C)o1` [Example 44], for which the logP in data set [1] stood at 4.54.
The compound `Cn1cc(C(=O)NC[Si](C)(C)c2cc(Cl)cc(Cl)c2)c(C(F)F)c1` [Example 45] registered a logP in data set [1] of 4.11.
In the case of `Cn1nc(C(F)F)c(C(=O)NC[Si](C)(C)c2cc(Cl)cc(Cl)c2)c1Cl` [Example 46], the Efficacy with Alternaria solani was 95%; in the data set with Pyrenophora teres, 100%. Moreover, in the data set with Aspergillus parasiticus, the “% Inhibition of fungal growth at 50 μM” value is reported as 84%. Further, the logP in data set [1] came to 4.27. Besides, the “% Inhibition of Aflatoxin at 50 μM” value in data set [2] was determined as 99%.
In the same order, the values of `Cn1nc(C(F)F)c(C(=O)NC[Si](C)(C)c2cc(Cl)cc(Cl)c2)c1F` [Example 47] are 100%, 95%, 100%, 4.08 and 100%.
As to `Cc1cc(C(=O)N(C[Si](C)(C)c2cc(Cl)cc(Cl)c2)C2CC2)c(C)o1` [Example 50], the values for the Efficacy in the data set on Alternaria solani and with Pyrenophora teres were 100% and 95%, respectively. This compound had a logP in data set [1] of 5.51.
In the same order, the values of `Cc1nc(C(F)F)c(C(=O)N(C[Si](C)(C)c2cc(Cl)cc(Cl)c2)C2CC2)s1` [Example 53] are 80%, 95% and 4.92.
In the same order, the values of `Cn1nc(C(F)F)c(C(=O)N(C[Si](C)(C)Cc2ccccc2)C2CC2)c1Cl` [Example 54] are 95%, 100% and 4.20.
In the case of `Cc1cc(C(=O)N(C[Si](C)(C)Cc2ccccc2)C2CC2)c(C)o1` [Example 56], the logP in data set [1] turned out to be 4.67.
Turning to `Cn1nc(C(F)F)c(C(=S)N(C[Si](C)(C)Cc2ccccc2)C2CC2)c1F` [Example 57], in the data set with Alternaria solani, the Efficacy stood at 95%. The same compound had a logP in data set [1] of 4.67.
On to `Cc1cc(C(=O)N(C[Si](C)(C)Cc2ccccc2Cl)C2CC2)c(C)o1` [Example 58], for which, in data set [1], the logP turned out to be 5.08.
On to `Cn1cc(C(=O)N(C[Si](C)(C)Cc2ccccc2Cl)C2CC2)c(C(F)F)c1` [Example 59], for which, in data set [1], the logP was found to be 4.56. The same compound came in with an Efficacy in the data set on Pyrenophora teres of 70%.
On to `Cn1nc(C(F)F)c(C(=O)N(C[Si](C)(C)Cc2ccccc2Cl)C2CC2)c1Cl` [Example 60], for which the Efficacy in the data set with Alternaria solani and with Pyrenophora teres was 95% in each case. In addition, the “% Inhibition of fungal growth at 50 μM” value in the data set with Aspergillus parasiticus stood at 84%. In data set [1], this compound showed a logP of 4.56. In data set [2], the “% Inhibition of Aflatoxin at 50 μM” value was determined as 100%.
Regarding `Cn1nc(C(F)F)c(C(=S)N(C[Si](C)(C)Cc2ccccc2Cl)C2CC2)c1F` [Example 62], the results for the Efficacy in the data set with Alternaria solani and in the data set on Pyrenophora teres were 80% and 100%, respectively. For the same compound, the logP in data set [1] amounted to 5.00.
In the case of `Cc1cc(C(=O)N(C[Si](C)(C)Cc2cccc(Cl)c2)C2CC2)c(C)o1` [Example 63], the Efficacy in the data set on Alternaria solani was 70%. This compound also returned a logP in data set [1] of 5.11.
On to `Cn1cc(C(=O)N(C[Si](C)(C)Cc2cccc(Cl)c2)C2CC2)c(C(F)F)c1` [Example 64], for which, in data set [1], the logP is 4.62.
As for `Cn1nc(C(F)F)c(C(=O)N(C[Si](C)(C)Cc2cc(Cl)cc(Cl)c2)C2CC2)c1Cl` [Example 67], in the data set on Alternaria solani, the Efficacy is reported as 78%. The “% Inhibition of fungal growth at 50 μM” value in the data set with Aspergillus parasiticus amounted to 86%. The logP in data set [1] was found to be 5.14. For the same compound, the “% Inhibition of Aflatoxin at 50 μM” value in data set [2] is 100%.
In turn, `Cn1cc(C(=O)N(C[Si](C)(C)Cc2ccc(Cl)cc2Cl)C2CC2)c(C(F)F)c1` [Example 68] showed an Efficacy in the data set on Alternaria solani of 70%. For the same compound, in data set [1], the logP is 5.19.
`Cn1nc(C(F)F)c(C(=S)N(C[Si](C)(C)Cc2ccc(Cl)cc2Cl)C2CC2)c1F` [Example 71]: the Efficacy with Alternaria solani was 95%; with Pyrenophora teres, 100%. The compound also displayed a logP in data set [1] of 5.57.
Compound `Cn1nc(C(F)F)c(C(=O)N(C[Si](C)(C)Cc2cc(Cl)cc(Cl)c2)C2CC2)c1F` [Example 72] showed an Efficacy in the data set on Alternaria solani of 89%. Further, the “% Inhibition of fungal growth at 50 μM” value with Aspergillus parasiticus was found to be 100%. The logP in data set [1] came to 4.98. Further, in data set [2], the “% Inhibition of Aflatoxin at 50 μM” value was 100%.
`Cc1cc(C(=O)N(C[Si](C)(C)Cc2ccc(Cl)cc2Cl)C2CC2)c(C)o1` [Example 73] registered a logP in data set [1] of 5.78.
For the compound `Cn1nc(C(F)F)c(C(=O)N(C[Si](C)(C)c2ccc3ccccc3c2)C2CC2)c1Cl` [Example 77], the logP in data set [1] is recorded as 4.51.
In the case of `C[Si](C)(CN(C(=O)c1ccsc1I)C1CC1)c1ccc2ccccc2c1` [Example 78], the logP in data set [1] was 5.17.
With “N-cyclohexyl-N-{[dimethyl(phenyl)silyl]methyl}-2-furamide [Example 5]”, the lipophilicity (logP) in data set [1] is listed as 3.73.

In general, logP refers to the decadic logarithm of the partition coefficient of the neutral form, usually between octanol and water. A lower logP goes with a more hydrophilic compound. What is called chromatographic logP is lipophilicity estimated from chromatographic retention. Read a high chromatographic logP as higher lipophilicity.
